In patent US20170290774A1, “NEUROKININ-1 RECEPTOR ANTAGONIST COMPOSITION FOR TREATMENT OF DISEASES AND CONDITIONS OF THE RESPIRATORY TRACT” (PLUS VITECH, S.L., priority 2014, published 2017):
Values joined by “and” are separate entries in the source; they are usually repeats but may differ in a detail not shown here. Equal values may be shown once.

Assay: Tissue concentration of aprepitant by HPLC after oral or inhaled administration to rabbits
Type: in vivo, New Zealand albino rabbits
Details: for concentration at 7 days: New Zealand White (albino), rabbit
Procedure: Herein, New Zealand albino rabbits (New Zealand White Rabbits) with an initial average weight of approximately 3 kg were used. The rabbits were fed ad libitum and were monitored daily to check that signs of toxicity had not appeared. […] This mixture was administered as an aerosol to the airways of a group of 3 of said rabbits (Group 5) in a dose of 0.05 mg/kg body weight per day, to another group of three rabbits (Group 6) in a dose of 0.1 mg/kg body weight per day, to another group of three rabbits (group 7) in a dose of 0.2 mg/kg body weight per day and to another group of three rabbits (Group 8) in a dose of 0.4 mg/kg body weight per day. […] After seven days of treatment all animals were euthanized and necropsied. […] Samples were taken at the peripheral level of the lung parenchyma, just below the pleural surface. Tissue samples were also taken from the nasal cavity, pharynx, larynx and bronchi. […] The average is the arithmetic average calculated for each row or column of each table. The SD is the standard deviation, calculated for each row or column of each table.

[1] = Group 1, oral 10 mg/kg per day, seven days, individual cases, 10 mg/kg/day
[2] = Group 2, oral 40 mg/kg per day, seven days, individual cases, 40 mg/kg/day
[3] = Group 3, oral 80 mg/kg per day, seven days, individual cases, 80 mg/kg/day
[4] = Group 4, oral 100 mg/kg per day, seven days, individual cases, 100 mg/kg/day
[5] = Group 5, inhalation (aerosol, olive oil) 0.05 mg/kg per day, seven days, individual cases, 0.05 mg/kg/day
[6] = Group 6, inhalation (aerosol, olive oil) 0.1 mg/kg per day, seven days, individual cases, 0.1 mg/kg/day
[7] = Group 7, inhalation (aerosol, olive oil) 0.2 mg/kg per day, seven days, individual cases, 0.2 mg/kg/day
[8] = Group 8, inhalation (aerosol, olive oil) 0.4 mg/kg per day, seven days, individual cases, 0.4 mg/kg/day

Structure (SMILES): C[C@@H](OC1OCCN(Cc2nc(=O)[nH][nH]2)C1c1ccc(F)cc1)c1cc(C(F)(F)F)cc(C(F)(F)F)c1 (stereo in doubt) [Aprepitant, 5-([(2R,3S)-2-((R)-1-[3,5-bis(trifluoromethyl)phenyl]ethoxy)-3-(4-fluorophenyl)morpholino]methyl)-1H-1,2,4-triazol-3(2H)-one]
- Lung concentration of aprepitant LIPD (right inferior lobe) [1]: 0.9 micrograms of aprepitant per gram of lung tissue and 1.0 micrograms of aprepitant per gram of lung tissue
- Lung concentration of aprepitant LIPI (left inferior lobe) [1]: 1.4 micrograms of aprepitant per gram of lung tissue and 1.1 micrograms of aprepitant per gram of lung tissue
- Lung concentration of aprepitant LMPD (right middle lobe) [1]: 1.4 micrograms of aprepitant per gram of lung tissue and 1.5 micrograms of aprepitant per gram of lung tissue
- Lung concentration of aprepitant LSPD (right superior lobe) [1]: 1.1 micrograms of aprepitant per gram of lung tissue and 0.4 micrograms of aprepitant per gram of lung tissue and 1.2 micrograms of aprepitant per gram of lung tissue
- Lung concentration of aprepitant LSPI (left superior lobe) [1]: 1.0 micrograms of aprepitant per gram of lung tissue and 0.5 micrograms of aprepitant per gram of lung tissue
- Lung concentration of aprepitant LIPD (right inferior lobe) [2]: 3.1 micrograms of aprepitant per gram of lung tissue and 4.2 micrograms of aprepitant per gram of lung tissue
- Lung concentration of aprepitant LIPI (left inferior lobe) [2]: 2.8 micrograms of aprepitant per gram of lung tissue and 4.0 micrograms of aprepitant per gram of lung tissue
- Lung concentration of aprepitant LMPD (right middle lobe) [2]: 2.9 micrograms of aprepitant per gram of lung tissue and 5.1 micrograms of aprepitant per gram of lung tissue
- Lung concentration of aprepitant LSPD (right superior lobe) [2]: 4.1 micrograms of aprepitant per gram of lung tissue and 3.3 micrograms of aprepitant per gram of lung tissue
- Lung concentration of aprepitant LSPI (left superior lobe) [2]: 4.2 micrograms of aprepitant per gram of lung tissue and 3.6 micrograms of aprepitant per gram of lung tissue
- Lung concentration of aprepitant LIPD (right inferior lobe) [3]: 6.3 micrograms of aprepitant per gram of lung tissue and 5.3 micrograms of aprepitant per gram of lung tissue
- Lung concentration of aprepitant LIPI (left inferior lobe) [3]: 3.4 micrograms of aprepitant per gram of lung tissue and 4.3 micrograms of aprepitant per gram of lung tissue
- Lung concentration of aprepitant LMPD (right middle lobe) [3]: 5.5 micrograms of aprepitant per gram of lung tissue and 5.3 micrograms of aprepitant per gram of lung tissue
- Lung concentration of aprepitant LSPD (right superior lobe) [3]: 4.2 micrograms of aprepitant per gram of lung tissue and 3.3 micrograms of aprepitant per gram of lung tissue
- Lung concentration of aprepitant LSPI (left superior lobe) [3]: 5.1 micrograms of aprepitant per gram of lung tissue
- Lung concentration of aprepitant LIPD (right inferior lobe) [4]: 5.9 micrograms of aprepitant per gram of lung tissue and 6.1 micrograms of aprepitant per gram of lung tissue
- Lung concentration of aprepitant LIPI (left inferior lobe) [4]: 4.8 micrograms of aprepitant per gram of lung tissue and 5.1 micrograms of aprepitant per gram of lung tissue
- Lung concentration of aprepitant LMPD (right middle lobe) [4]: 5.1 micrograms of aprepitant per gram of lung tissue and 5.4 micrograms of aprepitant per gram of lung tissue
- Lung concentration of aprepitant LSPD (right superior lobe) [4]: 4.8 micrograms of aprepitant per gram of lung tissue and 4.3 micrograms of aprepitant per gram of lung tissue
- Lung concentration of aprepitant LSPI (left superior lobe) [4]: 5.2 micrograms of aprepitant per gram of lung tissue and 4.5 micrograms of aprepitant per gram of lung tissue
- Lung concentration of aprepitant LIPD (right inferior lobe) [5]: 1.5 micrograms of aprepitant per gram of lung tissue and 1.6 micrograms of aprepitant per gram of lung tissue
- Lung concentration of aprepitant LIPI (left inferior lobe) [5]: 1.5 micrograms of aprepitant per gram of lung tissue and 1.4 micrograms of aprepitant per gram of lung tissue
- Lung concentration of aprepitant LMPD (right middle lobe) [5]: 1.6 micrograms of aprepitant per gram of lung tissue and 1.5 micrograms of aprepitant per gram of lung tissue
- Lung concentration of aprepitant LSPD (right superior lobe) [5]: 1.4 micrograms of aprepitant per gram of lung tissue and 1.5 micrograms of aprepitant per gram of lung tissue
- Lung concentration of aprepitant LSPI (left superior lobe) [5]: 1.5 micrograms of aprepitant per gram of lung tissue
- Lung concentration of aprepitant LMPD (right middle lobe) (Group 6, inhalation (aerosol, olive oil) 0.1 mg/kg per day, seven days, individual cases): 2.9 micrograms of aprepitant per gram of lung tissue
- Lung concentration of aprepitant LIPD (right inferior lobe) [6]: 2.9 micrograms of aprepitant per gram of lung tissue and 2.8 micrograms of aprepitant per gram of lung tissue
- Lung concentration of aprepitant LIPI (left inferior lobe) [6]: 2.8 micrograms of aprepitant per gram of lung tissue and 2.9 micrograms of aprepitant per gram of lung tissue
- Lung concentration of aprepitant LSPD (right superior lobe) [6]: 2.8 micrograms of aprepitant per gram of lung tissue and 2.9 micrograms of aprepitant per gram of lung tissue
- Lung concentration of aprepitant LSPI (left superior lobe) [6]: 2.7 micrograms of aprepitant per gram of lung tissue and 2.8 micrograms of aprepitant per gram of lung tissue
- Lung concentration of aprepitant LIPD (right inferior lobe) (Group 7, inhalation (aerosol, olive oil) 0.2 mg/kg per day, seven days, individual cases): 6.0 micrograms of aprepitant per gram of lung tissue
- Lung concentration of aprepitant LIPI (left inferior lobe) [7]: 6.0 micrograms of aprepitant per gram of lung tissue and 5.9 micrograms of aprepitant per gram of lung tissue
- Lung concentration of aprepitant LMPD (right middle lobe) [7]: 6.0 micrograms of aprepitant per gram of lung tissue and 6.1 micrograms of aprepitant per gram of lung tissue
- Lung concentration of aprepitant LSPD (right superior lobe) [7]: 5.9 micrograms of aprepitant per gram of lung tissue and 6.0 micrograms of aprepitant per gram of lung tissue
- Lung concentration of aprepitant LSPI (left superior lobe) [7]: 6.1 micrograms of aprepitant per gram of lung tissue and 5.9 micrograms of aprepitant per gram of lung tissue
- Lung concentration of aprepitant LIPD (right inferior lobe) [8]: 10.4 micrograms of aprepitant per gram of lung tissue and 10.0 micrograms of aprepitant per gram of lung tissue
- Lung concentration of aprepitant LIPI (left inferior lobe) [8]: 10.1 micrograms of aprepitant per gram of lung tissue and 9.9 micrograms of aprepitant per gram of lung tissue
- Lung concentration of aprepitant LMPD (right middle lobe) [8]: 10.1 micrograms of aprepitant per gram of lung tissue and 9.9 micrograms of aprepitant per gram of lung tissue
- Lung concentration of aprepitant LSPD (right superior lobe) [8]: 10.0 micrograms of aprepitant per gram of lung tissue and 9.8 micrograms of aprepitant per gram of lung tissue
- Lung concentration of aprepitant LSPI (left superior lobe) [8]: 10.2 micrograms of aprepitant per gram of lung tissue and 10.0 micrograms of aprepitant per gram of lung tissue
- concentration at 7 days (in vivo, 0.05 mg/kg/day, Lung concentration of aprepitant, Average ± SD of the five lobes per case): 1400 ng/g
- concentration at 7 days (in vivo, 0.1 mg/kg/day, Lung concentration of aprepitant, Average ± SD of the five lobes per case): 2800 ng/g
- concentration at 7 days (in vivo, 0.2 mg/kg/day, Lung concentration of aprepitant, Average ± SD of the five lobes per case): 6020 ng/g
- concentration at 7 days (in vivo, po, 100 mg/kg/day, Lung concentration of aprepitant, Average ± SD of the five lobes per case): 5240 ng/g
- concentration at 7 days (lung, left inferior lobe, inhaled, 0.05 mg/kg/day, Lung concentration of aprepitant LIPI (left inferior lobe), Group 5, inhalation (aerosol, olive oil) 0.05 mg/kg per day, seven days, individual cases): 1500 ng/g
- concentration at 7 days (lung, left inferior lobe, inhaled, 0.05 mg/kg/day, Lung concentration of aprepitant LIPI, Average ± SD of cases, Group 5, inhalation (aerosol, olive oil) 0.05 mg/kg per day, seven days): 1400 ng/g
- concentration at 7 days (lung, left inferior lobe, inhaled, 0.1 mg/kg/day, Lung concentration of aprepitant LIPI (left inferior lobe), Group 6, inhalation (aerosol, olive oil) 0.1 mg/kg per day, seven days, individual cases): 2800 ng/g
- concentration at 7 days (lung, left inferior lobe, inhaled, 0.1 mg/kg/day, Lung concentration of aprepitant LIPI, Average ± SD of cases, Group 6, inhalation (aerosol, olive oil) 0.1 mg/kg per day, seven days): 2800 ng/g
- concentration at 7 days (lung, left inferior lobe, inhaled, 0.2 mg/kg/day, Lung concentration of aprepitant LIPI (left inferior lobe), Group 7, inhalation (aerosol, olive oil) 0.2 mg/kg per day, seven days, individual cases): 5900 ng/g
- concentration at 7 days (lung, left inferior lobe, po, 100 mg/kg/day, Lung concentration of aprepitant LIPI (left inferior lobe), Group 4, oral 100 mg/kg per day, seven days, individual cases): 6100 ng/g
- concentration at 7 days (lung, left inferior lobe, po, 100 mg/kg/day, Lung concentration of aprepitant LIPI, Average ± SD of cases, Group 4, oral 100 mg/kg per day, seven days): 5300 ng/g
- concentration at 7 days (lung, left superior lobe, inhaled, 0.05 mg/kg/day, Lung concentration of aprepitant LSPI (left superior lobe), Group 5, inhalation (aerosol, olive oil) 0.05 mg/kg per day, seven days, individual cases): 1400 ng/g
- concentration at 7 days (lung, left superior lobe, inhaled, 0.05 mg/kg/day, Lung concentration of aprepitant LSPI, Average ± SD of cases, Group 5, inhalation (aerosol, olive oil) 0.05 mg/kg per day, seven days): 1400 ng/g
- concentration at 7 days (lung, left superior lobe, inhaled, 0.1 mg/kg/day, Lung concentration of aprepitant LSPI (left superior lobe), Group 6, inhalation (aerosol, olive oil) 0.1 mg/kg per day, seven days, individual cases): 2800 ng/g
- concentration at 7 days (lung, left superior lobe, inhaled, 0.1 mg/kg/day, Lung concentration of aprepitant LSPI, Average ± SD of cases, Group 6, inhalation (aerosol, olive oil) 0.1 mg/kg per day, seven days): 2700 ng/g
- concentration at 7 days (lung, left superior lobe, inhaled, 0.2 mg/kg/day, Lung concentration of aprepitant LSPI (left superior lobe), Group 7, inhalation (aerosol, olive oil) 0.2 mg/kg per day, seven days, individual cases): 6100 ng/g
- concentration at 7 days (lung, left superior lobe, po, 100 mg/kg/day, Lung concentration of aprepitant LSPI (left superior lobe), Group 4, oral 100 mg/kg per day, seven days, individual cases): 4300 ng/g
- concentration at 7 days (lung, left superior lobe, po, 100 mg/kg/day, Lung concentration of aprepitant LSPI, Average ± SD of cases, Group 4, oral 100 mg/kg per day, seven days): 4600 ng/g
- concentration at 7 days (lung, right inferior lobe, inhaled, 0.05 mg/kg/day, Lung concentration of aprepitant LIPD (right inferior lobe), Group 5, inhalation (aerosol, olive oil) 0.05 mg/kg per day, seven days, individual cases): 1500 ng/g
- concentration at 7 days (lung, right inferior lobe, inhaled, 0.05 mg/kg/day, Lung concentration of aprepitant LIPD, Average ± SD of cases, Group 5, inhalation (aerosol, olive oil) 0.05 mg/kg per day, seven days): 1500 ng/g
- concentration at 7 days (lung, right inferior lobe, inhaled, 0.1 mg/kg/day, Lung concentration of aprepitant LIPD (right inferior lobe), Group 6, inhalation (aerosol, olive oil) 0.1 mg/kg per day, seven days, individual cases): 2800 ng/g
- concentration at 7 days (lung, right inferior lobe, inhaled, 0.1 mg/kg/day, Lung concentration of aprepitant LIPD, Average ± SD of cases, Group 6, inhalation (aerosol, olive oil) 0.1 mg/kg per day, seven days): 2800 ng/g
- concentration at 7 days (lung, right inferior lobe, inhaled, 0.2 mg/kg/day, Lung concentration of aprepitant LIPD (right inferior lobe), Group 7, inhalation (aerosol, olive oil) 0.2 mg/kg per day, seven days, individual cases): 6000 ng/g
- concentration at 7 days (lung, right inferior lobe, inhaled, 0.2 mg/kg/day, Lung concentration of aprepitant LIPD, Average ± SD of cases, Group 7, inhalation (aerosol, olive oil) 0.2 mg/kg per day, seven days): 6000 ng/g
